Results from patent US6994986B2, “In vitro synthesis of polypeptides by optimizing amino acid metabolism” (The Board of Trustees of the Leland Stanford University, priority 1999, dated 2006).

Columns and labels:
E. coli S30 extract [1] = assay: Cell-free protein synthesis, PEP system (phosphoenol pyruvate / pyruvate kinase ATP regeneration); type: biochemical, Escherichia coli
Experimental: (§1) Throughout the examples to follow, two standard methods were used for cell-free protein synthesis. The first uses phosphoenol pyruvate (PEP) and pyruvate kinase to regenerate ATP from ADP. This is termed the PEP system. The second uses pyruvate and pyruvate oxidase to regenerate ATP. This is called the pyruvate system.
57 mM Hepes-KOH (pH 8.2), 1.2 mM ATP, 0.85 mM each of GTP, UTP and CTP, 1 mM DTT, 0.64 mM cAMP, 200 mM potassium glutamate, 80 mM NH4(OAc), 15 mM Mg(OAc)2, […] folinic acid, 6.7 μg/ml plasmid, 33 μg/ml T7 RNA polymerase, 500 μM each of 20 unlabeled amino acids, [^3H] leucine (0.27 GBq/mmol), 2% PEG 8000, 20 mM PEP (phosphoenol pyruvate), and 0.24 volumes of S30 extract. […]
(§2) Reactions were conducted for given time periods in a water bath set at 37° C. The amount of synthesized protein was estimated from the measured cold TCA-insoluble radioactivities as described (Kim et al., supra.) Radioactivities of samples were measured in a liquid scintillation counter (Beckman). […]
(§3) The amount of synthesized protein was estimated from the measured TCA-insoluble radioactivities as described earlier (Kim et al., 1996a, supra.) Radioactivities of samples were measured in a liquid scintillation counter (Beckman LS3801). […]

acetate kinase = acetate kinase (Escherichia coli, UniProt P0A6A3); details: read-out: Km value of acetate kinase for acetyl phosphate; cited from earlier work
acetate kinase, sequence (P0A6A3 whole entry): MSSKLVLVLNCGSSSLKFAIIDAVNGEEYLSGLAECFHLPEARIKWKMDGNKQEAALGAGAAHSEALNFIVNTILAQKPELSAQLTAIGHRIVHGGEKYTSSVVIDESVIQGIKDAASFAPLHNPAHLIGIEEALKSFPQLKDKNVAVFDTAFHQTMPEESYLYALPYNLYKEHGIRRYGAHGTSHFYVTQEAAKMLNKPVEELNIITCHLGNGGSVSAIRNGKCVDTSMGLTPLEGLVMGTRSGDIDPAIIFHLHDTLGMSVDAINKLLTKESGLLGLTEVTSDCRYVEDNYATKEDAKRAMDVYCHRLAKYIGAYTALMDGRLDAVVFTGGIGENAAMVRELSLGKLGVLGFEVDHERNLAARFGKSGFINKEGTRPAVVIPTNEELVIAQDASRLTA

[2] = target: T1, phosphoenol pyruvate synthetase (pps) (Escherichia coli, UniProt P23538); assay: Aspartic acid/asparagine formation in the cell-free reaction mixture; type: biochemical, E. coli; details: 2.7 mM oxalic acid; FIG. 6
T1 construct: endogenous in cells; host or cells: E. coli K12 strain A19, S30 cell extract
T1 sequence (P23538 whole entry): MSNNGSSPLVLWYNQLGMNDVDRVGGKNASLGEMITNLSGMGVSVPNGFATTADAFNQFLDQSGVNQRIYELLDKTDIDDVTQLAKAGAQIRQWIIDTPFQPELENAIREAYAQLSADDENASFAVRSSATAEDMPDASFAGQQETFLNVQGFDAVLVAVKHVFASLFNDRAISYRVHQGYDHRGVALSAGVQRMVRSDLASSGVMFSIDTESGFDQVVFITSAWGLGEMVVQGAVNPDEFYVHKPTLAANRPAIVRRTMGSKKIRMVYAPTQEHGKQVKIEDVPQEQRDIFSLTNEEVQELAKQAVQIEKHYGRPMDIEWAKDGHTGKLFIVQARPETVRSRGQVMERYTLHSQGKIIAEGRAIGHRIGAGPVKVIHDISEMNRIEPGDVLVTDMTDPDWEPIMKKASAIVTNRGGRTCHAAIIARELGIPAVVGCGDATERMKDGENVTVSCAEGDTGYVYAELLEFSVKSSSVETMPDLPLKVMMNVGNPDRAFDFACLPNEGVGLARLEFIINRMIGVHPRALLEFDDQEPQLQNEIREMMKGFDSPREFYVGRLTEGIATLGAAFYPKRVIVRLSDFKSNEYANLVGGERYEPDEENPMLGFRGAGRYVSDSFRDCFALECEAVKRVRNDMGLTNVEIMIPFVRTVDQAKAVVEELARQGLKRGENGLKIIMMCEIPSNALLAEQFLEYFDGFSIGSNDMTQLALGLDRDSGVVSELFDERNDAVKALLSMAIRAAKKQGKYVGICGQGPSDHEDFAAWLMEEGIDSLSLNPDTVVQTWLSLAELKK
Experimental: (§4) The observations indicated in the previous examples prompted the measurement of individual amino acid concentrations during the course of a protein synthesis reaction. In this case, a pyruvate-driven reaction of 900 μl was started. Samples of 100 μl were taken each hour, diluted 1:1 with cold water and deproteinized by adding 200 μl of cold 10% TCA (trichloroacetic acid) solution. After centrifugation the supernatant was analyzed using a Beckman 1600 amino acid analyzer. […] This is a potentially serious source of reaction inefficiency. In the second case, the depletion of the three amino acids is most likely the reason that prolonging the reaction required amino acids addition.
The conversion of pyruvate to PEP is catalyzed by the enzyme, phosphoenol pyruvate synthetase (pps). Oxalic acid has been reported to inhibit pps. To test to see if the pps reaction is indeed responsible for aspartic acid and asparagine synthesis and to test if these reactions are reducing the protein yield, 2.7 mM oxalic acid was added to both the pyruvate system and the PEP system. […] With the pyruvate system, less pyruvate and ATP are being lost to amino acid formation. In the case with PEP as the energy source, pyruvate is the direct product after PEP transfers its phosphate to ADP. That pyruvate will then be converted back into PEP by pps, but at the cost of two ATP's for each new PEP molecule. […]

E. coli S30 extract [3] = assay: Cell-free protein synthesis, pyruvate system (pyruvate / pyruvate oxidase ATP regeneration); type: biochemical, Escherichia coli
Experimental: as §1
T7 RNA polymerase was prepared from the culture of E. coli strain BL21 (pAR1219) according to the slightly modified procedures of Davanloo et al. (1984) Proc. Natl. Acad. Sci. U.S.A. 81: 2035–2039. S30 extract was prepared from wild type E. coli K12 (strain A19) according to the procedures reported earlier (Kim et al., supra.). The standard reaction mixture for the pyruvate system is nearly identical. […]
as §2, §3

arginine decarboxylase = target: T2, arginine decarboxylase (Escherichia coli, UniProt P21170); assay: Arginine depletion in the cell-free reaction mixture (amino acid analysis); type: biochemical, E. coli; design: dose or concentration left out as unconfirmed; details: spermidine; FIG. 5
T2 construct: endogenous in cells; host or cells: E. coli K12 strain A19, S30 cell extract
T2 sequence (P21170 whole entry): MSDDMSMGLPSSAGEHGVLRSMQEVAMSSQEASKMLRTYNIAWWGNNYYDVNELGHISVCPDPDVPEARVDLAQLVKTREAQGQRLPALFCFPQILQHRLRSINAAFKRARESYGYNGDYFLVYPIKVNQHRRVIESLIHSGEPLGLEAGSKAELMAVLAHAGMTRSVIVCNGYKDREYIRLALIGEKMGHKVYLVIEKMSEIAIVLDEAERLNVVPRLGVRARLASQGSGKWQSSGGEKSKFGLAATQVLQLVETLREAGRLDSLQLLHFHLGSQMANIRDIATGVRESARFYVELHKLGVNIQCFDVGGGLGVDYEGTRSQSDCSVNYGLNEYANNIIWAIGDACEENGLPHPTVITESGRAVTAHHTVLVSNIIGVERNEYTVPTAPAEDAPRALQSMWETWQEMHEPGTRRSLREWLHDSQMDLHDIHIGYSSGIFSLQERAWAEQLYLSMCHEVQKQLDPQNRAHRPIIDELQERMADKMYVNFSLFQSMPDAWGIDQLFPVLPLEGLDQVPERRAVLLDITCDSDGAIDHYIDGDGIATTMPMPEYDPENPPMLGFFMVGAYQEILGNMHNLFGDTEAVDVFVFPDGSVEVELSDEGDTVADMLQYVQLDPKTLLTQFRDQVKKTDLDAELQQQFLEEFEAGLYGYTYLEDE
Experimental: as §4
The data shown in FIGS. 3 and 4 indicate that the degradation of three amino acids, arginine, cysteine and tryptophan is seriously limiting the efficiency and duration of the protein synthesis reaction. […] In the case of arginine, one possible cause is the action of arginine decarboxylase. This is the first enzyme in the pathway for the conversion of arginine to putrescine and spermidine, cationic molecules important for normal bacterial physiology. Putrescine and spermidine can also be produced from ornithine, but arginine is preferred when it is available. (See FIG. 10) Arginine decarboxylase is known to be feedback inhibited by spermidine. […]

For `CC(=O)OP(=O)(O)O` [acetyl phosphate], the “support of protein synthesis as energy source” value (E. coli S30 extract [1]; energy source in place of PEP) is listed as “as efficiently as PEP” and the Km (acetate kinase) is listed as 200 µM.

With `O=C(O)C(=O)O` [oxalic acid] the protein yield (E. coli S30 extract [1]; 2.7 mM oxalic acid, PEP system, FIG. 8) was “increases the protein yield”, the “formation of aspartic acid and asparagine” value [2] was “reduced” and the protein yield (E. coli S30 extract [3]; 2.7 mM oxalic acid, pyruvate system, FIG. 7) was “increases the protein yield”.

In the case of `NCCCCNCCCN` [spermidine], the arginine depletion (arginine decarboxylase) is reported as “significantly slow arginine depletion”.

In the case of catalase, the “effect on rate or duration of protein synthesis” value (E. coli S30 extract [3]; exogenous catalase added to the reaction mixture) is reported as “did not affect either the rate or duration of protein synthesis”.
